Marks after values point to notes of the source that are not given here.
Experiments:
Format in all cases: physicochemical
Settings in all cases: mean ± DE of three replicate experiments
[1] = Antioxidant capacity (ORAC)
Source text: (§1) We confirmed the removal activity of the polyphenol rich extract from microfiltered blackberry juice using different methods (Chart 11), and this activity was compared with the flavonoid remover of quercetin radicals.

DPPH radical removal = test: DPPH radical removal
Source text: as §1

NO removal assay = test: NO removal assay
Protocol: as §1
Four hours of pretreatment with the blackberry extract reduced NO production in a dose dependent manner only when the LPS+IFNγ was incubated with the extract (no wash). If the extract is removed before the addition of LPS+IFNγ (with rinsing), inhibition of NO production was seen only in the highest concentration tested.

DPPH IC50 (DPPH radical removal): 2.17 ± 0.08^b μg/mL | No Removal IC50 (NO removal assay): 6.57 ± 0.8^b μg/mL
Structure (SMILES): O=c1c(O)c(-c2ccc(O)c(O)c2)oc2cc(O)cc(O)c12 [Quercetin]
ORAC [1]: 2067 ± 81^b μM TE/g
